Some test systems named below: NCI/ADR-RES ovarian; SR leukemia; RXF-631 renal.
Common to all, as to assay: inhibition of tumour cell growth, NCI panel, 48 h

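Values below derive from 48-hour exposures of cells grown in 96-well plates, with endpoints linearly interpolated between the two concentrations bracketing the appropriate inhibition level. At the TGI there is no net growth.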

The record followed here is PubChem BioAssay (NCI).

Turning to `O=C(O)CNS(=O)(=O)c1ccc(NC(=O)Nc2ccccc2)cc1`, the TGI in the experiment with NCI/ADR-RES ovarian was above 100 µM.

In the experiment with SR leukemia, `CC(C)(O)[C@H](CCO)O[Si](c1ccccc1)(c1ccccc1)C(C)(C)C` returned a TGI of 26.4 µM.

On to `COc1cc2c(cc1OC)C(Cc1c3ccccc3cc3ccccc13)N(C)CC2` (stereo not drawn), for which, in the experiment on NCI/ADR-RES ovarian, the TGI was above 74.1 µM.

In the experiment on NCI/ADR-RES ovarian, `CCNCCCCNCC` registered a TGI above 3750 µM.

For the compound `CC1=C2C(O)C(C(C)C(=O)NC(C)C)CCC2(C)C=CC1=O` (stereo not drawn), the TGI with NCI/ADR-RES ovarian was above 100 µM.

Consider `Cn1c(=O)c2nc(N3CCCCC3)cnc2n(C)c1=O`, for which the TGI in the experiment with SR leukemia is above 100 µM.

For the compound `Cc1cc(N=Nc2ccc(N=Nc3c(O)c(S(=O)(=O)O)cc4cc(S(=O)(=O)O)ccc34)cc2C)ccc1N=Nc1ccc2cc(S(=O)(=O)O)cc(S(=O)(=O)O)c2c1`, in the experiment with NCI/ADR-RES ovarian, the TGI is above 100 µM.

On to `COC(=O)NN1C(=O)C(=P(c2ccccc2)(c2ccccc2)c2ccccc2)C(C(=O)OC)=C1C`, for which the TGI in the experiment on RXF-631 renal is above 100 µM.
